From patent publication US20260355196A1, “INHIBITORS AND DEGRADERS OF PIP4K PROTEIN” (Larkspur Biosciences, Inc., priority 2023, published 2026)

The compounds below were run against T1, PIP4K2C (Homo sapiens, UniProt Q8TBX8) (assay: HiBiT PIP4K2C degradation assay in MOLT-4 cells (endogenous PIP4K2C C-terminally tagged with HiBiT)). Conditions: 6 hours of incubation time, rather than 24 hours; MOLT-4, top concentration 10 micromolar; read-out: HiBIT-degradation MOLT4 PIP4k2C DC50 (6 hours, marked *).
T1 sequence (Q8TBX8 1-421): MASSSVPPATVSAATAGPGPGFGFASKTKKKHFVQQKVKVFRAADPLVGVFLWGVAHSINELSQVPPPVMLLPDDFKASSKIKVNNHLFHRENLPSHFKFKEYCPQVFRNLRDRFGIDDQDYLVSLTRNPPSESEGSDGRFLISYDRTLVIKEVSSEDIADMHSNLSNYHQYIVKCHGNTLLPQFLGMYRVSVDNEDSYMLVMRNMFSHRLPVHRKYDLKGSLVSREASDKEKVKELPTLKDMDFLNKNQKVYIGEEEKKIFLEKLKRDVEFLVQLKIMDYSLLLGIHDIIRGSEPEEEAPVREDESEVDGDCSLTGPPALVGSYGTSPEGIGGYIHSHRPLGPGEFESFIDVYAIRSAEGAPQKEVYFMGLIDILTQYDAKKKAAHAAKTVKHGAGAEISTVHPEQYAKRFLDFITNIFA
Assay type: cell-based
Design: untagged in primary human PBMCs and monocyte-derived dendritic cells
How it was run: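 DC50 derived by Hill fit of luminescence from Nano-Glo HiBiT lytic detection. Cells were HiBiT knock-in MOLT-4 (C-terminal tag on endogenous PIP4K2C), exposed 6 h or 24 h at 37 C to compound, top concentration 10 micromolar, 3-fold steps, 10 points, duplicates.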

SMILES	DC50 [nM]
O=C1CCC(Nc2ccc(C3CCN([C@H]4CC[C@H](NC(=O)[C@H]5CC[C@H](Nc6ncc(F)c(-c7ccnc(N8CCCOC8=O)c7)n6)CC5)CC4)CC3)c(F)c2)C(=O)N1 (stereo partly drawn) [Compound 550, trans-N-((trans)-4-(4-(4-((2,6-dioxopiperidin-3-yl)amino)-2-fluorophenyl)piperidin-1-yl)cyclohexyl)-4-((5-fluoro-4-(2-(2-oxo-1,3-oxazinan-3-yl)pyridin-4-yl)pyrimidin-2-yl)amino)cyclohexane-1-carboxamide]	< 500
O=C1CCC(Nc2ccc(N3CCN([C@H]4CC[C@H](C(=O)N[C@H]5CC[C@H](Nc6ncc(F)c(-c7cccc(-c8ccccc8)c7)n6)CC5)CC4)CC3)c(F)c2)C(=O)N1 (stereo partly drawn) [Compound 604, trans-(1r,4R)—N-((1r,4R)-4-((4-([1,1′-biphenyl]-3-yl)-5-fluoropyrimidin-2-yl)amino)cyclohexyl)-4-(4-(4-((2,6-dioxopiperidin-3-yl)amino)-2-fluorophenyl)piperazin-1-yl)cyclohexane-1-carboxamide]	< 500
O=C1CCC(Nc2ccc(C3CCN(CC4(O)CCN(C(=O)[C@H]5CC[C@H](Nc6ncc(F)c(-c7cccc(-c8ccc[nH]c8=O)c7)n6)CC5)CC4)CC3)c(F)c2)C(=O)N1 (stereo partly drawn) [Compound 581, 3-((3-fluoro-4-(1-((1-(trans-4-((5-fluoro-4-(3-(2-oxo-1,2-dihydropyridin-3-yl)phenyl)pyrimidin-2-yl)amino)cyclohexane-1-carbonyl)-4-hydroxypiperidin-4-yl)methyl)piperidin-4-yl)phenyl)amino)piperidine-2,6-dione]	< 500
O=C1CCC(Nc2ccc(C3CCN(CCC4CCN(C(=O)[C@@H]5CCC[C@H](Nc6ncc(F)c(-c7cccc(-n8ccccc8=O)c7)n6)C5)CC4)CC3)c(F)c2)C(=O)N1 (stereo partly drawn) [Compound 308, 3-((3-fluoro-4-(1-(2-(1-((1R,3S)-3-((5-fluoro-4-(3-(2-oxopyridin-1(2H)-yl)phenyl)pyrimidin-2-yl)amino)cyclohexane-1-carbonyl)piperidin-4-yl)ethyl)piperidin-4-yl)phenyl)amino)piperidine-2,6-dione]	< 500
O=C1CCC(Nc2ccc(C3CCN(CC4CCN(C(=O)[C@H]5CC[C@H](Nc6ncc(F)c(-c7cccc(-c8ccccc8)c7)n6)CC5)CC4)CC3)c(F)c2)C(=O)N1 (stereo partly drawn) [Compound 466, 3-((4-(1-((1-(trans-4-((4-([1,1′-biphenyl]-3-yl)-5-fluoropyrimidin-2-yl)amino)cyclohexane-1-carbonyl)piperidin-4-yl)methyl)piperidin-4-yl)-3-fluorophenyl)amino)piperidine-2,6-dione]	< 500
O=C1CCC(Nc2ccc(N3CCN(CC4CCN(C(=O)[C@H]5CC[C@H](Nc6ncc(F)c(-c7cccc(N8CCOCC8=O)c7)n6)CC5)CC4)CC3)c(F)c2)C(=O)N1 (stereo partly drawn) [Compound 553, trans-3-((3-fluoro-4-(4-((1-(4-((5-fluoro-4-(3-(3-oxomorpholino)phenyl)pyrimidin-2-yl)amino)cyclohexane-1-carbonyl)piperidin-4-yl)methyl)piperazin-1-yl)phenyl)amino)piperidine-2,6-dione]	< 500
O=C1CCC(Nc2ccc(N3CCC(N4CCC(C(=O)N[C@H]5CC[C@H](Nc6ncc(F)c(-c7cccc(N8CCCCC8=O)c7)n6)CC5)CC4)CC3)c(F)c2)C(=O)N1 (stereo partly drawn) [Compound 587, 1′-(4-((2,6-dioxopiperidin-3-yl)amino)-2-fluorophenyl)-N-(trans-4-((5-fluoro-4-(3-(2-oxopiperidin-1-yl)phenyl)pyrimidin-2-yl)amino)cyclohexyl)-[1,4′-bipiperidine]-4-carboxamide]	< 500

The next lines start with the values.

DC50 [nM]	SMILES
< 500	O=C1CCC(Nc2ccc(C3CCN(CC4(O)CCN(C(=O)[C@H]5CC[C@H](Nc6ncc(F)c(-c7cccc(N8CCOCC8)c7)n6)CC5)CC4)CC3)c(F)c2)C(=O)N1 (stereo partly drawn) [Compound 665, 3-((3-fluoro-4-(1-((1-((trans)-4-((5-fluoro-4-(3-morpholinophenyl)pyrimidin-2-yl)amino)cyclohexane-1-carbonyl)-4-hydroxypiperidin-4-yl)methyl)piperidin-4-yl)phenyl)amino)piperidine-2,6-dione]
< 500	O=C1CCC(Nc2ccc(C3CCN(C[C@H]4CC[C@H](C(=O)N5CCC(Nc6ncc(F)c(-c7cccc(-n8ccccc8=O)c7)n6)CC5)CC4)CC3)c(F)c2)C(=O)N1 (stereo partly drawn) [Compound 693, 3-((3-fluoro-4-(1-(((trans)-4-(4-((5-fluoro-4-(3-(2-oxopyridin-1 (2H)-yl)phenyl)pyrimidin-2-yl)amino)piperidine-1-carbonyl)cyclohexyl)methyl)piperidin-4-yl)phenyl)amino)piperidine-2,6-dione]
< 500	O=C1CCC(Nc2ccc(N3CCN(C4CCN(C(=O)O[C@H]5CC[C@H](Nc6ncc(F)c(-c7cccc(N8CCCOC8=O)c7)n6)CC5)CC4)CC3)c(F)c2)C(=O)N1 (stereo partly drawn) [Compound 674, trans-4-((5-fluoro-4-(3-(2-oxo-1,3-oxazinan-3-yl)phenyl)pyrimidin-2-yl)amino)cyclohexyl 4-(4-(4-((2,6-dioxopiperidin-3-yl)amino)-2-fluorophenyl)piperazin-1-yl)piperidine-1-carboxylate]
< 500	O=C1CCC(Nc2ccc(C3CCN(CC4(O)CCC(C(=O)N5CCC(Nc6ncc(F)c(-c7cccc(-n8ccccc8=O)c7)n6)CC5)CC4)CC3)c(F)c2)C(=O)N1 (stereo not drawn) [Compound 680, trans-3-((3-fluoro-4-(1-((4-(4-((5-fluoro-4-(3-(2-oxopyridin-1 (2H)-yl)phenyl)pyrimidin-2-yl)amino)piperidine-1-carbonyl)-1-hydroxycyclohexyl)methyl)piperidin-4-yl)phenyl)amino)piperidine-2,6-dione]
< 500	O=C1CCC(Nc2ccc(N3CCN(C4CCN(C(=O)O[C@H]5CC[C@H](Nc6ncc(F)c(-c7cccc(N8CCOCC8)c7)n6)CC5)CC4)CC3)c(F)c2)C(=O)N1 (stereo partly drawn) [Compound 673, trans-4-((5-fluoro-4-(3-morpholinophenyl)pyrimidin-2-yl)amino)cyclohexyl 4-(4-(4-((2,6-dioxopiperidin-3-yl)amino)-2-fluorophenyl)piperazin-1-yl)piperidine-1-carboxylate]

Same assay, conditions: 24 hours incubation, MOLT-4, top concentration 10 micromolar; read-out: HiBIT-degradation MOLT4 PIP4k2C 24 hours DC50

DC50 [nM]	SMILES
< 500	O=C1CCC(N2Cc3cc(C4CCN(C5CCCN(CC(=O)N6CCC(Nc7ncc(Cl)c(-c8cccc(-c9ccc(F)cc9)c8)n7)CC6)C5)CC4)ccc3C2=O)C(=O)N1 (stereo not drawn) [Compound 705, 3-(5-(1′-(2-(4-((5-chloro-4-(4′-fluoro-[1,1′-biphenyl]-3-yl)pyrimidin-2-yl)amino)piperidin-1-yl)-2-oxoethyl)-[1,3′-bipiperidin]-4-yl)-1-oxoisoindolin-2-yl)piperidine-2,6-dione]
500 to 1000	O=C1CCC(Nc2ccc(C3CCN(CCN4CCN(C(=O)[C@H]5CCC[C@@H](Nc6ncc(Cl)c(-c7cccc(-c8ccccc8)c7)n6)C5)CC4)CC3)cc2)C(=O)N1 (relative stereo) [Compound 55, cis-3-((4-(1-(2-(4-(3-((4-([1,1′-biphenyl]-3-yl)-5-chloropyrimidin-2-yl)amino)cyclohexane-1-carbonyl)piperazin-1-yl)ethyl)piperidin-4-yl)phenyl)amino)piperidine-2,6-dione]
< 500	O=C1CCC(Nc2ccc(N3CCC(N4CC5(CC(OC(=O)N[C@H]6CC[C@H](Nc7ncc(F)c(-c8cccc(-n9ccccc9=O)c8)n7)CC6)C5)C4)CC3)c(F)c2)C(=O)N1 (stereo partly drawn) [Compound 377, trans-2-(1-(4-((2,6-dioxopiperidin-3-yl)amino)-2-fluorophenyl)piperidin-4-yl)-2-azaspiro[3.3]heptan-6-yl (4-((5-fluoro-4-(3-(2-oxopyridin-1(2H)-yl)phenyl)pyrimidin-2-yl)amino)cyclohexyl)carbamate]
< 500	Cn1c(=O)n(C2CCC(=O)NC2=O)c2ccc(C3CCN(CCN4CCN(C(=O)[C@H]5CCC[C@@H](Nc6ncc(Cl)c(-c7cccc(-c8ccccc8)c7)n6)C5)CC4)CC3)cc21 (relative stereo) [Compound 49, cis-3-(5-(1-(2-(4-(3-((4-([1,1′-biphenyl]-3-yl)-5-chloropyrimidin-2-yl)amino)cyclohexane-1-carbonyl)piperazin-1-yl)ethyl)piperidin-4-yl)-3-methyl-2-oxo-2,3-dihydro-1H-benzo[d]imidazol-1-yl)piperidine-2,6-dione]
< 500	O=C1CCC(n2c(=O)oc3cc(C4CCN(C[C@H]5CC[C@H](NC(=O)[C@H]6CCC[C@@H](Nc7ncc(F)c(-c8cccc(-n9ccccc9=O)c8)n7)C6)CC5)CC4)ccc32)C(=O)N1 (relative stereo) [Compound 306, cis-trans-N-(4-((4-(3-(2,6-dioxopiperidin-3-yl)-2-oxo-2,3-dihydrobenzo[d]oxazol-6-yl)piperidin-1-yl)methyl)cyclohexyl)-3-((5-fluoro-4-(3-(2-oxopyridin-1(2H)-yl)phenyl)pyrimidin-2-yl)amino)cyclohexane-1-carboxamide]
< 500	O=C1CCC(Nc2ccc(C3CCN(CC4CCN(C(=O)[C@H]5CC[C@H](Nc6ncc(F)c(-c7cccc(-n8ccccc8=O)c7)n6)CC5)CC4)CC3)c(F)c2)C(=O)N1 (stereo partly drawn) [Compound 318, trans-3-((3-fluoro-4-(1-((1-(4-((5-fluoro-4-(3-(2-oxopyridin-1(2H)-yl)phenyl)pyrimidin-2-yl)amino)cyclohexane-1-carbonyl)piperidin-4-yl)methyl)piperidin-4-yl)phenyl)amino)piperidine-2,6-dione]
